Measurements from PubChem BioAssay (NCI).
Values joined by “and” are separate entries in the source; they are usually repeats but may differ in a detail not shown here. Equal values may be shown once.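 All cell lines were grown in 96-well plates and treated with compound for 48 hours. GI50 marks 50% less growth. TGI: total growth inhibition.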

Experiments:
Assay in all cases: inhibition of tumour cell growth, NCI panel, 48 h
CAKI-1 renal = system: CAKI-1 renal
HL-60(TB) leukemia = system: HL-60(TB) leukemia
HOP-92 NSCLC = system: HOP-92 NSCLC
MCF7 breast = system: MCF7 breast
NCI-H460 lung = system: NCI-H460 lung
OVCAR-3 ovarian = system: OVCAR-3 ovarian
OVCAR-4 ovarian = system: OVCAR-4 ovarian
SF-539 CNS = system: SF-539 CNS
SK-MEL-28 melanoma = system: SK-MEL-28 melanoma
SK-OV-3 ovarian = system: SK-OV-3 ovarian

| Structure (SMILES) | GI50 (CAKI-1 renal) | TGI (CAKI-1 renal) | GI50 (HL-60(TB) leukemia) | TGI (HL-60(TB) leukemia) | GI50 (HOP-92 NSCLC) | TGI (HOP-92 NSCLC) | GI50 (MCF7 breast) | TGI (MCF7 breast) | GI50 (NCI-H460 lung) | TGI (NCI-H460 lung) | GI50 (OVCAR-3 ovarian) | TGI (OVCAR-3 ovarian) | GI50 (OVCAR-4 ovarian) [nM] | TGI (OVCAR-4 ovarian) [µM] | GI50 (SF-539 CNS) | TGI (SF-539 CNS) | GI50 (SK-MEL-28 melanoma) | TGI (SK-MEL-28 melanoma) | GI50 (SK-OV-3 ovarian) | TGI (SK-OV-3 ovarian) |
| --- | --- | --- | --- | --- | --- | --- | --- | --- | --- | --- | --- | --- | --- | --- | --- | --- | --- | --- | --- | --- |
| CCN1CCN(c2nc(C)cc(NCc3cc(Nc4ccnc5cc(Cl)ccc45)ccc3F)n2)CC1 | 1.83 µM | 4.72 µM | 2220 nM | 4.55 µM | 1210 nM | 4.07 µM | 1810 nM | 5.31 µM | 1560 nM | 3.67 µM | 1960 nM | 4.93 µM | 1590 | 7.7 | 1760 nM | 3.37 µM | 1700 nM | 3.37 µM | 4.14 µM | 15 µM |
| CCCCC(=O)N(c1ccc(Nc2c3ccccc3nc3cc([N+](=O)[O-])ccc23)cc1)S(C)(=O)=O | 7.03 µM | > 51.9 µM | 12900 nM | > 69.7 µM | 3570 nM | 21.5 µM | 293 nM | 9.83 µM | 381 nM | 12.8 µM | 14200 nM | 66.6 µM | 11100 | 29.2 | 5230 nM | > 61.9 µM | 14500 nM | 36.6 µM | 27 µM | > 100 µM |
| CCc1nc(C)cn1C(=O)OCc1nc2nc(Cl)nc(N3CCOCC3)c2[nH]1 | 0.406 µM | 1.71 µM | 451 nM | 3.15 µM | 880 nM | 2.41 µM | 633 nM | 2.44 µM | 1700 nM | 3.76 µM | 636 nM | 1.98 µM | 1490 | 2.93 | 1270 nM | 2.54 µM | 1780 nM | 3.2 µM | 4.04 µM | 15.6 µM |
| N#C/C(=C\c1cc(O)c(O)c(O)c1)C(N)=O |  | > 100 µM |  | > 81.5 µM |  | > 100 µM |  | > 56 µM |  | > 100 µM |  | > 100 µM |  | > 100 |  | > 100 µM |  | > 100 µM |  | > 100 µM |
| C/C(=N\NC(=O)c1ccncc1)c1sc(-n2nc(-c3ccccc3)cc2-c2ccccc2)nc1C |  | > 100 µM |  | > 31.6 µM |  | > 31.6 µM |  | > 31.6 µM |  | > 31.6 µM |  | > 31.6 µM |  | > 31.6 |  | > 31.6 µM |  | > 31.6 µM |  | > 31.6 µM |
| COc1ccc2c(c1)C(=Nc1ccc(F)c(Cl)c1)c1c-2c(Nc2ccc(F)c(Cl)c2)nc2ccccc12 | > 65.8 µM | > 100 µM | 14800 nM | 33.1 µM | 33800 nM | > 100 µM | 56200 nM | > 100 µM | > 100000 nM | > 100 µM | 42700 nM | > 100 µM | 24800 | > 75.7 | 27000 nM | > 74.9 µM | > 100000 nM | > 100 µM | 18.8 µM | 98.6 µM |
| CC1(C)C(N2CCOCC2)CS1(=O)=O (stereo not given) |  | > 10 µM |  | > 10 µM |  | > 10 µM |  | > 10 µM |  | > 10 µM |  | > 10 µM |  | > 10 |  | > 10 µM |  | > 10 µM |  | > 10 µM |
| C#C[C@@]1(O)[C@@H](CO)O[C@@H](n2cc(Br)c3c(Cl)ccnc32)[C@@H]1O | 0.602 µM | > 100 µM | 1030 nM | 3.69 µM | 115 nM | 0.916 µM | 394 nM | > 31.6 µM | 4290 nM | > 100 µM | 621 nM | > 75 µM | 677 | > 100 | 357 nM | 11.1 µM | > 100000 nM | > 100 µM | 3.66 µM | > 100 µM |
| COc1cccc2c1C(=O)c1c(O)c3c(c(O)c1C2=O)C[C@@](O)(C(=O)CO)CC3OC1CC(N)C(OC2CCCCO2)C(C)O1 (stereo not given in full) | 0.523 µM | 5.38 µM and 2.76 µM | < 1 nM |  |  | 0.537 µM |  | 1.08 µM |  | 1.08 µM and 5.09 µM | 70.9 nM |  | 1460 |  | 3.52 nM |  | 113 nM |  | 0.0465 µM | 2.09 µM and 12 µM |
| COc1cccc2c1C(=O)c1c(O)c3c(c(O)c1C2=O)C[C@@](O)(/C(CO)=N/NC(=O)CCCCCN1C(=O)C=CC1=O)C[C@@H]3O[C@H]1C[C@H](N)[C@H](O)[C@H](C)O1 | 3.6 µM | 56.4 µM | 800 nM | 15.5 µM | 270 nM | 7.01 µM | 147 nM | > 100 µM | 88.9 nM | 1.95 µM | 1890 nM | > 64.4 µM | 2250 | 22 | 734 nM | 7.82 µM | 1610 nM | 5.67 µM | 1.63 µM | 36.8 µM |
| C[C@@H](Nc1cc(F)cc(F)c1)c1cc(C(=O)N(C)C)cc2c(=O)cc(N3CCOCC3)oc12 | 9.44 µM | > 100 µM | 2170 nM | > 57.6 µM | < 38.9 nM | 13 µM | 894 nM | 99 µM | 5610 nM | > 100 µM | 1250 nM | 61.8 µM | 26100 | > 100 | 3580 nM | 50.3 µM | 2500 nM | > 100 µM | 2.18 µM | > 65.3 µM |
| CCOc1cc(-c2nncn2C)ccc1Nc1ncc2cc(C)nc(NCC(C)(C)C)c2n1 | > 26.6 µM | > 100 µM | > 100000 nM | > 100 µM | > 26000 nM | > 100 µM |  | > 100 µM | 535 nM | > 100 µM | > 27500 nM | > 100 µM | > 29300 | > 100 |  | > 100 µM | > 100000 nM | > 100 µM | > 100 µM | > 100 µM |
| O=S1(=O)c2ccccc2N(c2ccccc2)c2nnnn21 |  | 36.9 µM |  | 33.6 µM |  | 88.7 µM |  | > 100 µM |  | > 100 µM |  | 47.2 µM |  | 70.4 |  | 35.7 µM |  | 92.9 µM |  | > 100 µM |
| Cc1cc(O)ccc1C1=NN(c2ccc(S(N)(=O)=O)cc2)C(=O)CC1 | 4.08 µM and 4.93 µM | 50 µM and 82.1 µM | 1850 nM and 5000 nM | 50 µM and > 100 µM | 11100 nM and 18500 nM | 50 µM and 75.5 µM | 2260 nM and 8230 nM | 50 µM and > 100 µM | 2190 nM and 6160 nM | 50 µM and > 100 µM | 2690 nM and 8060 nM | 29.9 µM and 71 µM | > 100000 | > 100 | 6660 nM and 19400 nM | 50 µM and > 100 µM | 25700 nM and > 100000 nM | 50 µM and > 100 µM | 10.8 µM and 51.7 µM | 50 µM and > 100 µM |
